The target in one assay is T1, hAMY3 receptor (Homo sapiens, UniProt O60896+P30988).
T1 sequence (P30988 25-474): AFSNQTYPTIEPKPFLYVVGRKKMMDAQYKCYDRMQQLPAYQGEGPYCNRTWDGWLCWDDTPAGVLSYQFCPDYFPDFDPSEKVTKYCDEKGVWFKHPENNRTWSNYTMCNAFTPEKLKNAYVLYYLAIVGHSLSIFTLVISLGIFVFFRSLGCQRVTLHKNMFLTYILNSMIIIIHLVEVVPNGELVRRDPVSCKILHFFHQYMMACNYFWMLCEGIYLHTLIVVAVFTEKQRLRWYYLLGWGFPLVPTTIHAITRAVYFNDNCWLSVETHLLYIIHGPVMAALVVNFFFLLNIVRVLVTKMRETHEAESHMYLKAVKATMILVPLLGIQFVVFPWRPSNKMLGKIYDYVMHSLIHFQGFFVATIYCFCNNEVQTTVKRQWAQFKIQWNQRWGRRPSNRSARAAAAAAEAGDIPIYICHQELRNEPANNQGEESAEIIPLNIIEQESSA
T1 sequence (O60896 24-148 partner): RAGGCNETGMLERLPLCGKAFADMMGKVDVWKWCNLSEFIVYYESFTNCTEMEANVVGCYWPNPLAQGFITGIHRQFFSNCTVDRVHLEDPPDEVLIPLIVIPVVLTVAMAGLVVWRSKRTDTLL
Put plainly: cAMP assay for in vitro receptor activation, hAMY3-R. It is filed as cell-based. The note with it: cAMP assay, hAMY3 receptor; read-out: hAMY3R EC50. In short, it runs like this:
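Stable hAMY3 cells; DPBS + 0.05% casein + 0.5 mM IBMX; graded compound doses, 30 min, RT; cAMP via HTRF Gs kit, TR-FRET read at 1 h.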

In a further assay the target is hAM1 receptor (Homo sapiens, UniProt O60895+Q16602). Put plainly: cAMP assay for in vitro receptor activation, hAM1-R. The conditions noted are these: cAMP assay, hAM1 receptor; read-out: hAM1R EC50. The class given is cell-based. As to the method: General Protocols for cAMP Assays for Measuring In Vitro Receptor Activation
Sequence of hAM1 receptor (Q16602 23-461): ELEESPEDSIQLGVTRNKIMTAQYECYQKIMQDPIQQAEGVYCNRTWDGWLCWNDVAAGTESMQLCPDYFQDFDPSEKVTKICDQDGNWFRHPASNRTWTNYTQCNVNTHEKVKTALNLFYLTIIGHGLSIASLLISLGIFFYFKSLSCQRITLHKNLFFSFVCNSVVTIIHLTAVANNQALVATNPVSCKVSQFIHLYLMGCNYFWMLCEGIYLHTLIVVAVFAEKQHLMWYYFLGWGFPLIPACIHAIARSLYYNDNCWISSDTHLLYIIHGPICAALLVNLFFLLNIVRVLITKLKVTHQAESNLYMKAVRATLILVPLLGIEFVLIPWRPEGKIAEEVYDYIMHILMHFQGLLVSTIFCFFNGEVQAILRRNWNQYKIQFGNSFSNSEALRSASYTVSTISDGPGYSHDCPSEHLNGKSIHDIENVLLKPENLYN
Sequence of hAM1 receptor (O60895 43-175 partner): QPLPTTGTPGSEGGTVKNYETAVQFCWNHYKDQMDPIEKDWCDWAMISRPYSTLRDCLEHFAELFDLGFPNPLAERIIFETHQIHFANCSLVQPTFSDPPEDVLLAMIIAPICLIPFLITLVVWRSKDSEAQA
Cells stably overexpressing the hAM1 receptor were obtained from Ogeda (now Astellas Pharma), sub-cloned and a monoclonal cell-line with an appropriate assay-window was expanded, aliquoted and frozen. An aliquot was thawed and plated in DPBS with 0.05% casein and 0.5 mM IBMX as 8000 cells/well in a 384-well format.

The text below walks through data of patent US12139520B2 (priority 2020, dated 2024).

Numbered stars: 1 amine (or outer) side, 2 acyl side, 3 side chain; on linkers, the order of the positions; unused ones are H or OH. Bridge positions count the residues as written; N and C are the ends. Square brackets hold non-standard residues; d marks the D form. Side chains are listed from the residue outwards. Peptide text beside a SMILES is read from it. * marks the point of attachment. C20 diacid = O=C(O)CCCCCCCCCCCCCCCCCCC(=O)*; γGlu = O=C(O)[C@H](CCC(=O)[*:2])N[*:1]; Hyp = O=C(O)[C@@H]1C[C@@H](O)CN1; AEEA = NCCOCCOCC(=O)O Some results are limits rather than exact numbers.

Turning to `CC[C@H](C)[C@H](NC(=O)[C@H](CCC(N)=O)NC(=O)[C@H](CC(=O)O)NC(=O)[C@H](C)NC(=O)[C@H](CC(C)C)NC(=O)[C@H](CCCNC(=N)N)NC(=O)[C@H](CCC(N)=O)NC(=O)[C@@H](NC(=O)[C@@H](NC(=O)[C@@H]1CSSC[C@H](NC(=O)[C@H](CCCCN)NC(=O)CC[C@H](NC(=O)CCCCCCCCCCCCCCCCCCC(=O)O)C(=O)O)C(=O)N[C@@H](CC(N)=O)C(=O)N[C@@H]([C@@H](C)O)C(=O)N[C@@H](C)C(=O)N[C@@H]([C@@H](C)O)C(=O)N1)[C@@H](C)O)C(C)C)C(=O)N[C@@H](Cc1ccc(O)cc1)C(=O)N[C@@H](CCC(N)=O)C(=O)N[C@@H](Cc1ccccc1)C(=O)N[C@H](C(=O)N[C@@H](CC(=O)O)C(=O)N[C@@H](CCCCN)C(=O)N[C@@H](CC(=O)O)C(=O)N[C@@H](CCCCN)C(=O)N[C@@H](CC(=O)O)C(=O)N[C@@H](CC(N)=O)C(=O)N[C@H](C(=O)N[C@@H](C)C(=O)N1CCC[C@H]1C(=O)N1CCC[C@H]1C(=O)N[C@H](C(=O)N[C@@H](CC(N)=O)C(=O)N[C@H](C(=O)NCC(=O)N[C@@H](CO)C(=O)N[C@@H](CC(N)=O)C(=O)NCC(=O)N1C[C@H](O)C[C@H]1C(N)=O)C(C)C)[C@@H](C)O)C(C)C)[C@@H](C)O` [compound 5] ({C20 diacid-γGlu}-KCNTATCTVQRLADQIYQFTDKDKDNVAPPTNVGSNG[Hyp]-NH2; disulfide 2-7), the concentration giving a half-maximal response (EC50) at hAMY3 receptor is 0.006 nM; at hAM1 receptor it was > 5000 nM.

As to `CC[C@H](C)[C@H](NC(=O)[C@H](CCC(N)=O)NC(=O)[C@H](CC(=O)O)NC(=O)[C@H](C)NC(=O)[C@H](CC(C)C)NC(=O)[C@H](CCCNC(=N)N)NC(=O)[C@H](C)NC(=O)[C@@H](NC(=O)[C@@H](NC(=O)[C@@H]1CSSC[C@H](NC(=O)[C@@H](N)CCCCN)C(=O)N[C@@H](CC(N)=O)C(=O)N[C@@H]([C@@H](C)O)C(=O)N[C@@H](CO)C(=O)N[C@@H]([C@@H](C)O)C(=O)N1)[C@@H](C)O)C(C)C)C(=O)N[C@H](C(=O)N[C@@H](CCC(N)=O)C(=O)N[C@@H](Cc1ccccc1)C(=O)N[C@@H](CO)C(=O)N[C@@H](CC(N)=O)C(=O)N[C@@H](CCCCN)C(=O)N[C@@H](CC(=O)O)C(=O)N[C@@H](CCCCN)C(=O)N[C@@H](C)C(=O)N[C@@H](CCC(N)=O)C(=O)N[C@H](C(=O)N[C@@H](CO)C(=O)N1CCC[C@H]1C(=O)N1CCC[C@H]1C(=O)N[C@H](C(=O)N[C@@H](CCC(=O)O)C(=O)N[C@H](C(=O)NCC(=O)N1CCC[C@H]1C(=O)N[C@@H](CC(N)=O)C(=O)N[C@@H](CO)C(=O)N1C[C@H](O)C[C@H]1C(N)=O)C(C)C)[C@@H](C)O)C(C)C)[C@@H](C)O` [compound 8] (H-KCNTSTCTVARLADQITQFSNKDKAQVSPPTEVGPNS[Hyp]-NH2; disulfide 2-7; N-terminus assumed), the EC50 at hAMY3 receptor was 0.006 nM; at hAM1 receptor, > 5000 nM.

Take `CC[C@H](C)[C@H](NC(=O)[C@H](CCC(N)=O)NC(=O)[C@H](CC(=O)O)NC(=O)[C@H](C)NC(=O)[C@H](CC(C)C)NC(=O)[C@H](CCCNC(=N)N)NC(=O)[C@H](CC(N)=O)NC(=O)[C@@H](NC(=O)[C@@H](NC(=O)[C@@H]1CSSC[C@H](NC(=O)[C@@H](N)CCCNC(=N)N)C(=O)N[C@@H](CC(N)=O)C(=O)N[C@@H](C)C(=O)N[C@@H](CO)C(=O)N[C@@H]([C@@H](C)O)C(=O)N1)[C@@H](C)O)C(C)C)C(=O)N[C@H](C(=O)N[C@@H](CCC(N)=O)C(=O)N[C@@H](Cc1ccccc1)C(=O)N[C@@H](CO)C(=O)N[C@@H](CC(N)=O)C(=O)N[C@@H](CCCCN)C(=O)N[C@@H](CC(=O)O)C(=O)N[C@@H](CCCCN)C(=O)N[C@@H](C)C(=O)N[C@@H](CCC(N)=O)C(=O)N[C@H](C(=O)N[C@@H](CO)C(=O)N1CCC[C@H]1C(=O)N1CCC[C@H]1C(=O)N[C@H](C(=O)N[C@@H](CCC(=O)O)C(=O)N[C@H](C(=O)NCC(=O)N1CCC[C@H]1C(=O)N[C@@H](CC(N)=O)C(=O)N[C@@H](CO)C(=O)N1C[C@H](O)C[C@H]1C(N)=O)C(C)C)[C@@H](C)O)C(C)C)[C@@H](C)O` [compound 9] (H-RCNASTCTVNRLADQITQFSNKDKAQVSPPTEVGPNS[Hyp]-NH2; disulfide 2-7; N-terminus assumed): the results for the concentration giving a half-maximal response (EC50) on hAMY3 receptor and at hAM1 receptor were 0.006 nM and > 5000 nM, respectively.

On to `CC[C@H](C)[C@H](NC(=O)[C@H](CCC(N)=O)NC(=O)[C@H](Cc1c[nH]cn1)NC(=O)[C@H](C)NC(=O)[C@H](CC(C)C)NC(=O)[C@H](CCCNC(=N)N)NC(=O)[C@H](CCC(N)=O)NC(=O)[C@@H](NC(=O)[C@@H](NC(=O)[C@@H]1CSSC[C@H](NC(=O)[C@H](CCCCN)NC(=O)CC[C@H](NC(=O)CCCCCCCCCCCCCCCCCCC(=O)O)C(=O)O)C(=O)N[C@@H](CC(N)=O)C(=O)N[C@@H]([C@@H](C)O)C(=O)N[C@@H](C)C(=O)N[C@@H]([C@@H](C)O)C(=O)N1)[C@@H](C)O)C(C)C)C(=O)N[C@@H](CC(N)=O)C(=O)N[C@@H](CCC(N)=O)C(=O)N[C@@H](Cc1ccccc1)C(=O)N[C@H](C(=O)N[C@@H](CC(=O)O)C(=O)N[C@@H](CCCCN)C(=O)N[C@@H](CC(=O)O)C(=O)N[C@@H](CCCCN)C(=O)N[C@@H](CC(=O)O)C(=O)N[C@@H](CC(N)=O)C(=O)N[C@H](C(=O)N[C@@H](C)C(=O)N1CCC[C@H]1C(=O)N1CCC[C@H]1C(=O)N[C@H](C(=O)N[C@@H](CC(N)=O)C(=O)N[C@H](C(=O)NCC(=O)N[C@@H](CO)C(=O)N[C@@H](CC(N)=O)C(=O)NCC(=O)N1C[C@H](O)C[C@H]1C(N)=O)C(C)C)[C@@H](C)O)C(C)C)[C@@H](C)O` [compound 11] ({C20 diacid-γGlu}-KCNTATCTVQRLAHQINQFTDKDKDNVAPPTNVGSNG[Hyp]-NH2; disulfide 2-7), for which the results for the concentration giving a half-maximal response (EC50) at hAMY3 receptor and at hAM1 receptor were 0.007 nM and > 5000 nM, respectively.

Take `CC[C@H](C)[C@H](NC(=O)[C@H](CCC(N)=O)NC(=O)[C@H](CCC(=O)O)NC(=O)[C@H](C)NC(=O)[C@H](CC(C)C)NC(=O)[C@H](CCCNC(=N)N)NC(=O)[C@H](CCC(N)=O)NC(=O)[C@@H](NC(=O)[C@@H](NC(=O)[C@@H]1CSSC[C@H](NC(=O)[C@@H](N)CCCCN)C(=O)N[C@@H](CC(N)=O)C(=O)N[C@@H]([C@@H](C)O)C(=O)N[C@@H](C)C(=O)N[C@@H]([C@@H](C)O)C(=O)N1)[C@@H](C)O)C(C)C)C(=O)N[C@@H](Cc1ccc(O)cc1)C(=O)N[C@@H](CCC(N)=O)C(=O)N[C@@H](Cc1ccccc1)C(=O)N[C@H](C(=O)N[C@@H](CC(=O)O)C(=O)N[C@@H](CCCCN)C(=O)N[C@@H](CC(=O)O)C(=O)N[C@@H](CCCCN)C(=O)N[C@@H](CC(=O)O)C(=O)N[C@@H](CC(N)=O)C(=O)N[C@@H](CCCCNC(=O)COCCOCCNC(=O)COCCOCCNC(=O)CC[C@H](NC(=O)CCCCCCCCCCCCCCCCCCC(=O)O)C(=O)O)C(=O)N[C@@H](C)C(=O)N1CCC[C@H]1C(=O)N1CCC[C@H]1C(=O)N[C@H](C(=O)N[C@@H](CC(N)=O)C(=O)N[C@H](C(=O)NCC(=O)N[C@@H](CO)C(=O)N[C@@H](CC(N)=O)C(=O)NCC(=O)N1C[C@H](O)C[C@H]1C(N)=O)C(C)C)[C@@H](C)O)[C@@H](C)O` [compound 12] (H-KCNTATCTVQRLAEQIYQFTDKDKDNK([AEEA-AEEA-γGlu-C20 diacid])APPTNVGSNG[Hyp]-NH2; disulfide 2-7; N-terminus assumed): the EC50 is 0.007 nM on hAMY3 receptor and > 5000 nM at hAM1 receptor.

Regarding `CC[C@H](C)[C@H](NC(=O)[C@H](CCC(N)=O)NC(=O)[C@H](CC(=O)O)NC(=O)[C@H](C)NC(=O)[C@H](CC(C)C)NC(=O)[C@H](CCCNC(=N)N)NC(=O)[C@H](C)NC(=O)[C@@H](NC(=O)[C@@H](NC(=O)[C@@H]1CSSC[C@H](NC(=O)[C@@H](N)CCCCN)C(=O)N[C@@H](CC(N)=O)C(=O)N[C@@H]([C@@H](C)O)C(=O)N[C@@H](CO)C(=O)N[C@@H]([C@@H](C)O)C(=O)N1)[C@@H](C)O)C(C)C)C(=O)N[C@H](C(=O)N[C@@H](CCC(N)=O)C(=O)N[C@@H](Cc1ccccc1)C(=O)N[C@@H](CO)C(=O)N[C@@H](CC(=O)O)C(=O)N[C@@H](CCCCN)C(=O)N[C@@H](CC(=O)O)C(=O)N[C@@H](CCCCN)C(=O)N[C@@H](C)C(=O)N[C@@H](CC(N)=O)C(=O)N[C@H](C(=O)N[C@@H](CO)C(=O)N1CCC[C@H]1C(=O)N1CCC[C@H]1C(=O)N[C@H](C(=O)N[C@@H](CCC(=O)O)C(=O)N[C@H](C(=O)NCC(=O)N1CCC[C@H]1C(=O)N[C@@H](CC(N)=O)C(=O)N[C@@H](CO)C(=O)N1C[C@H](O)C[C@H]1C(N)=O)C(C)C)[C@@H](C)O)C(C)C)[C@@H](C)O` [compound 15] (H-KCNTSTCTVARLADQITQFSDKDKANVSPPTEVGPNS[Hyp]-NH2; disulfide 2-7; N-terminus assumed), the EC50 was 0.007 nM on hAMY3 receptor and > 5000 nM at hAM1 receptor.
